The results in this text go back to the METLIN SMRT retention time set (Domingo-Almenara et al. 2019).

The nature of this data set: gradient 5% acetonitrile 3 min, to 50% in 2 min, to 85% in 15 min, held 3 min, 100 µL/min. The following applies: column: Zorbax Extend-C18 2.1 x 50 mm; eluents: water / acetonitrile, 0.1% formic acid. A digest of the protocol:
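Retention times come from adduct peaks that were picked computationally and then checked by hand. The standards, pure and pooled in mixtures of ~100 molecules, were run on a Zorbax Extend-C18 column (2.1 × 50 mm, 1.8 μm) at 100 μL/min with water and acetonitrile, each with 0.1% formic acid. Detection was by quadrupole time-of-flight mass spectrometry in positive and negative ionization mode, with a dead volume of 40 μL and a dwell volume of 900 μL.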
The compound `Cc1ccc(-c2cc3c(N4CCCC(C(=O)NC5CC5)C4)nccn3n2)c(C)c1` (stereo unspecified) came in with an RP-LC retention time of 782 s.

`Cc1ccc(NC(=O)C2CCN(S(=O)(=O)c3cn(C(C)C)cn3)CC2)c(Br)c1`: the RP-LC retention time is 838 s.

Turning to `CCN1C(=O)c2ccccc2Oc2ccc(C(=O)N3CCCCCC3)cc21`, the RP-LC retention time is 900 s. `OCCN1CCN(c2ncnc3c2cnn3-c2ccc(Cl)cc2)CC1`: the RP-LC retention time was 650 s.

The compound `Fc1ccc(CN2CCC[C@H]2c2nc(C3CCOCC3)n[nH]2)c(Cl)c1` showed an RP-LC retention time of 586 s. `Cc1cccc(Nc2nc(C(=O)NCc3ccc(F)cc3F)cs2)n1` registered an RP-LC retention time of 843 s. The same measure for `O=C(CCn1nnc2cc(-c3noc(COc4ccccc4)n3)ccc21)N1CCOCC1`: 826 s; for `Cc1cc(=O)oc2cc(OCC(O)CN3CCN(c4ccccn4)CC3)ccc12` (stereo unspecified): 574 s. In turn, `COc1ccc(CCc2nc3nccc(-c4ccc5c(c4)OCCCO5)n3n2)cc1OC` yielded an RP-LC retention time of 874 s. For the compound `O=C(Cn1cccc(-c2nc(-c3ccc(F)cc3)no2)c1=O)Nc1cc(F)ccc1F`, the RP-LC retention time was determined as 915 s. In turn, `Cc1ccccc1S(=O)(=O)N1CC[C@@H]2CN(Cc3cccnc3)[C@@H]2C1` had an RP-LC retention time of 598 s. The same measure for `O=C(NC1CCCC1)C(c1ccc(Cl)cc1)N1CCN(C(=O)c2ccco2)CC1` (stereo unspecified): 954 s.

`COc1ccc(N2CCN(C3=NS(=O)(=O)c4ccccc43)CC2)cc1` came in with an RP-LC retention time of 780 s. For the compound `Cc1ccccc1CNC(=O)C1(C)CCCN(C(=O)Nc2ccc(Br)cc2F)C1` (stereo unspecified), the RP-LC retention time came to 869 s. The same measure for `COC1CCC12CCN(C(=O)C1CCCCC1)CC2` (stereo unspecified): 903 s; for `Cc1ccc(S(=O)(=O)Nc2cc(-c3cn4cccc(C)c4n3)ccc2C)cc1C`: 729 s. The value for `O=S(=O)(NCc1cccs1)c1ccc(Cl)c(-c2nnc(-c3ccccc3)o2)c1` was 1020 s.

As for `CCCN1CCN(C(=O)C2CCN(c3cnn(CCC)c(=O)c3)CC2)CC1`, the RP-LC retention time stood at 570 s. Compound `O=C(Nc1ccc(-c2nnc3n2CCCC3)cc1)c1ccc2c(c1)OCO2` registered an RP-LC retention time of 661 s. `Fc1cc(F)cc(-c2nc(-c3cccc(-c4ccn[nH]4)c3)no2)c1` came in with an RP-LC retention time of 1060 s. The value for `CCCOc1ccc(CNC(=O)CN2CCN(Cc3ccc(F)cc3)C2=O)cc1` was 903 s; that for `COc1ccc(C(C)NC(=O)C2CCN(c3cnc4nccnc4c3)CC2)cc1` (stereo unspecified) was 695 s; that for `O=C(Cn1c(CO)cnc1SCc1ccc(Cl)c(Cl)c1)NC1CC1` was 585 s. The value for `O=S(=O)(c1cccc(F)c1)N1CC(n2cc(COc3ccc(F)cc3)nn2)C1` was 923 s. Take `O=C(CCn1c(N2CCCC2)nc2ccsc2c1=O)N1CCN(c2ccccc2)CC1`: the RP-LC retention time came to 814 s. Compound `Cc1ccoc1C(=O)N1CCC2(CCC2O)CC1` (stereo unspecified) gave an RP-LC retention time of 645 s. In turn, `CN1C(=O)c2cccnc2Sc2cc(C(=O)NCc3cccc(Cl)c3)ccc21` registered an RP-LC retention time of 818 s. `O=C(Nc1ccc(Br)cc1)C1CCCN(c2nccnc2Oc2ccccc2)C1` (stereo unspecified) came in with an RP-LC retention time of 1140 s.

Compound `CCC1(O)CCOC2(CCN(C(=O)C3CCCCCC3)CC2)C1` (stereo unspecified) showed an RP-LC retention time of 823 s. On to `COCc1cc(=O)n(Cc2cccc(OC)c2)c(N2CCCC2)n1`, for which the RP-LC retention time was 764 s. The value for `O=C(NC(c1nnc(-c2ccccc2)o1)c1ccccc1F)c1ccco1` (stereo unspecified) was 851 s; that for `COC(=O)c1ncn2c1C(=O)N(c1cc(C)cc(C)c1)C(C)(C(=O)NCc1ccccc1)C2` (stereo unspecified) was 747 s; that for `CCOc1ccc(C(=O)NCc2c(-c3ccccc3)nc3sc(CC)nn23)cc1` was 943 s. The same measure for `Cc1ccc(C(=O)NCC2CCCO2)cc1` (stereo unspecified): 642 s; for `CC(C)c1noc(-c2ccn3c(CC(=O)NC(C)c4ccc(F)cc4)nnc3c2)n1` (stereo unspecified): 792 s. The same measure for `Cc1cccc(NC(=O)Cn2c(=O)n(-c3ccccc3)c3ncccc32)c1`: 851 s; for `O=C(c1ccc2ccnc(N3CCN(c4ccc(F)cc4)CC3)c2c1)N1CCCCC1`: 792 s.

Compound `CC(C)NC(=O)CN1CCN(c2ncc(C(=O)Nc3ccccc3)c(N)n2)CC1` registered an RP-LC retention time of 609 s. For `O=C1CC(C(=O)N2CCc3ccccc32)CN1CCc1c[nH]c2ccc(F)cc12` (stereo unspecified), the RP-LC retention time was determined as 1270 s. Compound `CCOc1ccc(CNc2nc3ccccc3n2CCN(CC)CC)cc1` yielded an RP-LC retention time of 1300 s. The same measure for `CC(C)n1c(=O)c(NCCc2ccccc2)nc2ccncc21`: 672 s; for `Cc1cc(=O)n(CC(=O)Nc2ccc(F)cc2)c(N2CCCC2)n1`: 618 s; for `O=C(CCc1ccccc1)N1CCc2cc(-c3ccno3)ccc21`: 1020 s. The same measure for `Cc1ccc(C(=O)Nc2cc(-c3cccs3)no2)cc1`: 993 s; for `Cc1ccc(NS(=O)(=O)c2cc(-c3[nH]ncc3C(=O)N3CCCC3)oc2C)c(Cl)c1`: 741 s. The value for `CCCN1C(=O)COc2ccc(-c3csc(NC(=O)CC(C)C)n3)cc21` was 1000 s; that for `CCOc1ccc(-n2cc(C(=O)OCc3ccccn3)c3ccccc3c2=O)cc1` was 750 s; that for `CC(C)c1nnc2n1CCN(C(=O)CCC1CCCC1)C2` was 714 s. Compound `Cc1cc(C)n(-c2ccnc(N3CCN(c4ccccc4F)CC3)n2)n1` returned an RP-LC retention time of 1220 s.

As for `Cc1nc(N)nc(Cl)c1CCC1OCCO1`, the RP-LC retention time amounted to 673 s. `CCc1ccc(NC(=O)N2CCC(n3cnnc3C3CC3)C2)cc1` (stereo unspecified) had an RP-LC retention time of 665 s. The same measure for `O=C1CC(c2nc(-c3ccccc3)no2)CN1c1ccc(F)cc1` (stereo unspecified): 940 s; for `O=C(NCc1ccccc1)Nc1ccc2nc(-c3ccccc3)cc(N3CCOCC3)c2c1`: 709 s. The same measure for `COc1ccc(NC(=O)N2CCC3(CC2)NC(=O)c2ccccc2O3)cc1`: 712 s. `CN(C(=O)c1cc2c(=O)oc3ccccc3c2n1C)C1CCCCC1` showed an RP-LC retention time of 908 s. The compound `Cc1ccc(-c2nc(NC(=O)c3sc(C)nc3C)sc2C)cc1` came in with an RP-LC retention time of 1000 s. As for `CCOc1ccc(Nc2cc(C(=O)N3CCCC(C)C3)nc3ccc(C)cc23)cc1` (stereo unspecified), the RP-LC retention time came out at 776 s. The same measure for `CCOc1ccccc1CNC(=O)C1CCN(Cc2cn(C)c3ccc(Cl)cc23)CC1`: 751 s. The value for `COCC(=O)N1CCCN(c2cc(=O)n(C(C)C)c(=O)n2C(C)C)CC1` was 678 s; that for `CC(=O)N(C1CC1)C1CCOC2(CCN(C(=O)c3sc(C)nc3C)CC2)C1` (stereo unspecified) was 643 s; that for `O=C(C1CCN(c2cc(N3CCCCC3)ncn2)CC1)N1CCCCCC1` was 661 s.
